Assay results reported in the NIST ThermoML archive (doi:10.1016/j.jct.2016.03.008).

Experiment: mn = molality of the nth substance listed, in mol/kg
Conditions: 101 kPa, Liquid; for viscosity: Capillary tube (Ostwald / Ubbelohde) method; for mass density: Vibrating tube method

O=c1cc[nH]c(=O)[nH]1 [2,4(1H,3H)-pyrimidinedione] + O
Conditions | mass density, m1 = 0.005 [kg/m3] | mass density, m1 = 0.01 [kg/m3] | mass density, m1 = 0.015 [kg/m3] | mass density, m1 = 0.02 [kg/m3] | viscosity, m1 = 0.005 [mPa·s] | viscosity, m1 = 0.01 [mPa·s] | viscosity, m1 = 0.015 [mPa·s] | viscosity, m1 = 0.02 [mPa·s]
298.15 K | 997.23 | 997.44 | 997.63 | 997.82 | 0.8929 | 0.8953 | 0.8977 | 0.9002
308.15 K | 994.25 | 994.44 | 994.63 | 994.82 | 0.722 | 0.7232 | 0.7245 | 0.727
318.15 K | 990.42 | 990.61 | 990.79 | 990.98 | 0.598 | 0.6004 | 0.6017 | 0.6041

C[N+](C)(C)CC(=O)O.[Cl-] [betaine hydrochloride] + O
Conditions | mass density, 298.15 K [kg/m3] | mass density, 308.15 K [kg/m3] | mass density, 318.15 K [kg/m3] | viscosity, 298.15 K [mPa·s] | viscosity, 308.15 K [mPa·s] | viscosity, 318.15 K [mPa·s]
m1 = 0.006 | 997.26 | 994.25 | 990.47 | 0.8929 | 0.7208 | 0.598
m1 = 0.0134 | 997.52 | 994.51 | 990.73 | 0.8965 | 0.7244 | 0.6005
m1 = 0.0267 | 997.98 | 994.97 | 991.19 | 0.9009 | 0.7288 | 0.6054
m1 = 0.0401 | 998.43 | 995.42 | 991.65 | 0.9064 | 0.7331 | 0.6104
m1 = 0.0536 | 998.87 | 995.87 | 992.1 | 0.9124 | 0.7381 | 0.6153
m1 = 0.0671 | 999.31 | 996.31 | 992.54 | 0.9181 | 0.7427 | 0.62
